Among the data in patent publication EP4038059B1, “SUBSTITUTED CARBAZOLE COMPOUNDS” (Bristol-Myers Squibb Company, priority 2019, dated 2021) are IC50 values, retold here.

Common to all, as to type: cell-based
One assay concerns the target T1, human TLR7 (Homo sapiens, UniProt Q9NYK1).
T1 construct: host or cells: HEK-Blue cells
T1 sequence (Q9NYK1 27-1049): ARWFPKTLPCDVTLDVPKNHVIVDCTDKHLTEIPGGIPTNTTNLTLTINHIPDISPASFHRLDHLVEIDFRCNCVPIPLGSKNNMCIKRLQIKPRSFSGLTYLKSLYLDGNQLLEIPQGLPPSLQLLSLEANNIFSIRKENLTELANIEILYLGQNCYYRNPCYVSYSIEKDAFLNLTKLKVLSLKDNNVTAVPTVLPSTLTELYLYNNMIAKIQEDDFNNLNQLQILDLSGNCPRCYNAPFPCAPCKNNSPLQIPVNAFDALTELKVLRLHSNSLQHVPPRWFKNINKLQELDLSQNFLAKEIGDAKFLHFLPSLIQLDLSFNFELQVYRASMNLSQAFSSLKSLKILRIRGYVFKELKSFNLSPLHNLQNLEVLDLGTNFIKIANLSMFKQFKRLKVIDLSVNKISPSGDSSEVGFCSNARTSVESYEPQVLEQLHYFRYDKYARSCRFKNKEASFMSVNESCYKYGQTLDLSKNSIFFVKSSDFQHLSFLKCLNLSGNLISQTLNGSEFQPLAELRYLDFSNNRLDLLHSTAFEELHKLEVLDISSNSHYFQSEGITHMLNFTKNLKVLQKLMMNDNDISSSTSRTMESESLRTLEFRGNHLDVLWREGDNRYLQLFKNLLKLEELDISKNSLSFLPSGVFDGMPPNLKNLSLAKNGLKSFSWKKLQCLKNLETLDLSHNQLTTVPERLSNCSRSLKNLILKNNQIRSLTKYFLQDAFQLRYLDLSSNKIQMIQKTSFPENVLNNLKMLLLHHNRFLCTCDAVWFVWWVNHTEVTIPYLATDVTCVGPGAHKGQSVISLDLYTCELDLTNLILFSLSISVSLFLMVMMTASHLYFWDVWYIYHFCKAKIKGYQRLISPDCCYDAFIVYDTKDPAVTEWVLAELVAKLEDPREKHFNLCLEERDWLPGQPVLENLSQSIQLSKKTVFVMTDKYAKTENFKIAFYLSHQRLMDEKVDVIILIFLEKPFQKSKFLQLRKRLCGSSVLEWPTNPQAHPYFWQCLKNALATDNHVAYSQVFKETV
Description: TLR7 inhibition reporter assay (HEK-Blue SEAP). The settings on record: HEK-Blue cells overexpressing human TLR7, stimulated with gardiquimod 7.5 µM, 22 h incubation. The protocol:
(§1) HEK-Blue™-cells (Invivogen) overexpressing human TLR7, TLR8 or TLR9 receptors were used for screening inhibitors of these receptors using an inducible SEAP (secreted embryonic alkaline phosphatase) reporter gene under the control of the IFN-β minimal promoter fused to five NF-κB and AP-1-binding sites. Briefly, cells are seeded into Greiner 384 well plates (15000 cells per well for TLR7, 20,000 for TLR8 and 25,000 for TLR9) and then treated with test compounds in DMSO to yield a final dose response concentration range of 0.05 nM - 50 µM. After a 30 minute compound pre-treatment at room temperature, the cells are then stimulated with a TLR7 ligand (gardiquimod at a final concentration of 7.5 µM), TLR8 ligand (R848 at a final concentration of 15.9 µM) or TLR9 ligand (ODN2006 at a final concentration of 5 nM) to activate NF-κB and AP-1 which induce the production of SEAP. After a 22 h incubation at 37°C, 5% CO2, SEAP levels are determined with the addition of HEK-Blue™ Detection reagent (Invivogen), a cell culture medium that allows for detection of SEAP, according to manufacturer's specifications. The percent inhibition is determined as the % reduction in the HEK-Blue signal present in wells treated with agonist plus DMSO alone compared to wells treated with a known inhibitor.
Background: A reporter such as luciferase makes a cellular process visible.

Another assay addresses T2, human TLR8 (Homo sapiens, UniProt Q9NR97).
T2 construct: host or cells: HEK-Blue cells
T2 sequence (Q9NR97 27-1041): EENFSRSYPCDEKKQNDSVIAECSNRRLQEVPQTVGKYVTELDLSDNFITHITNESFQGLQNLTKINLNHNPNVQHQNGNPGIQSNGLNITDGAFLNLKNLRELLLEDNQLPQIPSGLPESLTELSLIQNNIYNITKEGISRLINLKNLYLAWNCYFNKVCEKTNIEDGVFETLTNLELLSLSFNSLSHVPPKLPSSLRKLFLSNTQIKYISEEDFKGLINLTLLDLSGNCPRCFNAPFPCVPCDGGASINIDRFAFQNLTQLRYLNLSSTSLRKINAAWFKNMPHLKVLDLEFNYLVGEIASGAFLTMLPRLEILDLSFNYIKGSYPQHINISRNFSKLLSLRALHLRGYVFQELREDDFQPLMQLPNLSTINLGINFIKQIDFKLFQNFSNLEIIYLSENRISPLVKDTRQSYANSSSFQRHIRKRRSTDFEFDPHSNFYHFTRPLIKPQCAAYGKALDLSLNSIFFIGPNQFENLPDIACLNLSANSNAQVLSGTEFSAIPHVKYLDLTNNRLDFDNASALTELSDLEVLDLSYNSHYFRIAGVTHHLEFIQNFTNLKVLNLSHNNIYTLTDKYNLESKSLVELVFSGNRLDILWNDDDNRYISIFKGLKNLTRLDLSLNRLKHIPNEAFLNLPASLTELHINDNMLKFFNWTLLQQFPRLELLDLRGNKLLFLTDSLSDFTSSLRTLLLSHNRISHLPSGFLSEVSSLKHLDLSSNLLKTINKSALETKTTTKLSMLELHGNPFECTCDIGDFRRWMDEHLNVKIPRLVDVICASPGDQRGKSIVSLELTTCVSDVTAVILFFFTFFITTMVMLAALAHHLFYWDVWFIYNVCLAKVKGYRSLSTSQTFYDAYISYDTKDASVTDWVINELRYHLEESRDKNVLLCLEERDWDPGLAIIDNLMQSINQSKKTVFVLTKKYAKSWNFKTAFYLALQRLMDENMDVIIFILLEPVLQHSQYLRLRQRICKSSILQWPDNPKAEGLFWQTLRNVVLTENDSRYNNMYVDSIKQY
The assay is described as follows: TLR8 inhibition reporter assay (HEK-Blue SEAP). The settings on record: HEK-Blue cells overexpressing human TLR8, stimulated with R848 15.9 µM, 22 h incubation. On the procedure: as §1

A further assay has as its target T3, human TLR9 (Homo sapiens, UniProt Q9NR96).
T3 construct: host or cells: HEK-Blue cells
T3 sequence (Q9NR96 26-1032): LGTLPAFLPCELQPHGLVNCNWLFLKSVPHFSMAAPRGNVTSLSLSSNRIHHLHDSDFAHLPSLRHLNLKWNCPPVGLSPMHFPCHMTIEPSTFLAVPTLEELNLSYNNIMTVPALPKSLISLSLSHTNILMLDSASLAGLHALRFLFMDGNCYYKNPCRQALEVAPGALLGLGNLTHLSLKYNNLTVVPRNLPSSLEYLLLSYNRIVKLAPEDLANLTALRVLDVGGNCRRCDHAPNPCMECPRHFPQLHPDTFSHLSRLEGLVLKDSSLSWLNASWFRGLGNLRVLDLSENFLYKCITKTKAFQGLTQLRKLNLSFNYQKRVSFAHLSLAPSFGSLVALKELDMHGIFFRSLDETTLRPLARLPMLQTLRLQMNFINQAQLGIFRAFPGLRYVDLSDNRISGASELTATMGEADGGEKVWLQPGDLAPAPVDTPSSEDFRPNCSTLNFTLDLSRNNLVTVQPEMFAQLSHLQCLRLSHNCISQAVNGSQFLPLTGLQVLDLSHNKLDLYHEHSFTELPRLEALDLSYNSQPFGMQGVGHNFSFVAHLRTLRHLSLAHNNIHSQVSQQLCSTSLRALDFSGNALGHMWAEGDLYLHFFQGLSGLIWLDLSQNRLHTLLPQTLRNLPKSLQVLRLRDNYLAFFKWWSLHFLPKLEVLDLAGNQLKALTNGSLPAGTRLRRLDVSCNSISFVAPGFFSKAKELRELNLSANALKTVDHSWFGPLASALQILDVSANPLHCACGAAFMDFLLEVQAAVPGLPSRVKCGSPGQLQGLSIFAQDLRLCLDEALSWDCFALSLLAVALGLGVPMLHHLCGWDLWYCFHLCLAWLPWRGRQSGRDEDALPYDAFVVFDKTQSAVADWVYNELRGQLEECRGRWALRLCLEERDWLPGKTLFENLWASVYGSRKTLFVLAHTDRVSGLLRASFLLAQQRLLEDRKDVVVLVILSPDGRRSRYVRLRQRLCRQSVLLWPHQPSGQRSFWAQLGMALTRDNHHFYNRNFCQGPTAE
The assay is described as follows: TLR9 inhibition reporter assay (HEK-Blue SEAP). Conditions: HEK-Blue cells overexpressing human TLR9, stimulated with ODN2006 5 nM, 22 h incubation. The protocol: as §1

By IC50 is commonly meant the concentration at which inhibition is half-maximal. Lower therefore signals higher potency. With `COc1cc(-c2cc3[nH]c4ccc(C5CCNCC5)cc4c3c(C)c2C)cn2ncnc12` [Example 15, 2-(8-Methoxy-[1,2,4]triazolo[1,5-a]pyridin-6-yl)-3,4-dimethyl-6-(piperidin-4-yl)-9H-carbazole], the values for the IC50 on human TLR7, at human TLR8 and at human TLR9 were 0.8 nM, 0.8 nM and 95 nM, respectively.
`Cc1cc2c(cc1-c1cn(C)c(=O)c(C)c1C)[nH]c1ccc(C3CCNCC3)cc12` [Example 16]: the concentration for half-maximal inhibition (IC50) against human TLR7 is 35 nM; on human TLR8, 5.5 nM; against human TLR9 it was 158 nM.
For `COc1cc(-c2cc3[nH]c4ccc(C5CCNCC5)cc4c3cc2C)cn2ncnc12` [Example 17] the same measures were 1.9 nM, 1.4 nM and 108 nM.
Consider `Cc1c(-c2cc(C)c3c(c2)[nH]c2ccc(C4CCN(CC(C)(C)O)CC4)cc23)cn(C)c(=O)c1C` [Example 18, 5-(6-(1-(2-Hydroxy-2-methylpropyl)piperidin-4-yl)-4-methyl-9H-carbazol-2-yl)-1,3,4-trimethylpyridin-2(1H)-one], for which the IC50 worked out at 3.2 nM on human TLR7, 0.9 nM against human TLR8 and 650 nM against human TLR9.
For `Cc1cc(-c2cc(C)c3ncnn3c2)cc2[nH]c3ccc(C4CCN(CC(C)(C)O)CC4)cc3c12` [Example 19] the same measures were 1.8 nM, 4 nM and 416 nM.
For `COc1cc(-c2cc(C)c3c(c2)[nH]c2ccc(C4CCN(CC(C)(C)O)CC4)cc23)cn2ncnc12` [Example 20] the same measures were 1.9 nM, 2.1 nM and 224 nM.
For `Cc1cc(-c2cc(C)c3c(c2)[nH]c2ccc(C4CCN(CC(C)(C)O)CC4)cc23)cc(C)n1` [Example 21] the same measures were 1.5 nM, 12 nM and 60 nM.
For the molecule `Cc1cc2c(cc1-c1cc(C)c3ncnn3c1)[nH]c1ccc(C3CCN(CC(C)(C)O)CC3)cc12` [Example 22], the figures for the 50% inhibitory concentration (IC50) at human TLR7, against human TLR8 and at human TLR9 were 1.6 nM, 0.7 nM and 342 nM, respectively.
The matching figures for `COc1cc(-c2cc3[nH]c4ccc(C5CCN(CC(C)(C)O)CC5)cc4c3cc2C)cn2ncnc12` [Example 23]: 4.1 nM, 0.9 nM and 259 nM.
The matching figures for `Cc1cc2c(cc1-c1cn(C)c(=O)c(C)c1C)[nH]c1ccc(C3CCN(CC(C)(C)O)CC3)cc12` [Example 24]: 68 nM, 1.5 nM and 388 nM.
`COc1cc(-c2cc3[nH]c4ccc(C5CCN(CC(C)(C)O)CC5)cc4c3c(C)c2C)cn2ncnc12` [Example 25]: the values for the IC50 on human TLR7, on human TLR8 and against human TLR9 were 1.8 nM, 0.4 nM and 264 nM, respectively.
In the case of `COc1cc(-c2cc3[nH]c4ccc(C5CCCNC5)cc4c3c(C)c2C)cn2ncnc12` (stereo not drawn) [Example 26, 2-(8-methoxy-[1,2,4]triazolo[1,5-a]pyridin-6-yl)-3,4-dimethyl-6-(piperidin-3-yl)-9H-carbazole], the half-maximal inhibitory concentration (IC50) on human TLR7 was found to be 1.3 nM; at human TLR8, 1.6 nM; on human TLR9, 271 nM.
The matching figures for `COc1cc(-c2cc3[nH]c4ccc(C5CCCN(C(=O)CN(C)C)C5)cc4c3c(C)c2C)cn2ncnc12` (stereo not drawn) [Example 27, 2-(dimethylamino)-1-(3-(7-(8-methoxy-[1,2,4]triazolo[1,5-a]pyridin-6-yl)-5,6-dimethyl-9H-carbazol-3-yl)piperidin-1-yl)ethan-1-one]: 3.3 nM, 3.8 nM and 1170 nM.
For `COc1cc(-c2cc3[nH]c4ccc(C5CCCN(C6CCOCC6)C5)cc4c3c(C)c2C)cn2ncnc12` (stereo not drawn) [Example 28, 2-(8-methoxy-[1,2,4]triazolo[1,5-a]pyridin-6-yl)-3,4-dimethyl-6-(1-(tetrahydro-2H-pyran-4-yl)piperidin-3-yl)-9H-carbazole] the same measures were 7.8 nM, 0.7 nM and 523 nM.
`COc1cc(-c2cc3[nH]c4ccc(C5CNC5)cc4c3c(C)c2C)cn2ncnc12` [Example 29, 6-(azetidin-3-yl)-2-(8-methoxy-[1,2,4]triazolo[1,5-a]pyridin-6-yl)-3,4-dimethyl-9H-carbazole]: the results for the IC50 at human TLR7, against human TLR8 and against human TLR9 were 3.1 nM, 1 nM and 228 nM, respectively.
